# Data from PubChem BioAssay AID504544 (Sanford-Burnham Center for Chemical Genomics, 2011).
# Test system: S. cerevisiae tim23-1 mutant growth, luminescence
# Assay: tim23-1 yeast growth suppression potency – luminescence, uHTS hits, counter-screen for tim10-1 yeast inhibitor project, dose response (AID 504544)
row,SMILES,IC50
1,COc1ccccc1N1C(=O)CC(Sc2n[nH]c(-c3cccc(C)c3)n2)C1=O (configuration not stated),7.77 µM
2,O=C(N/N=C/c1ccc[nH]1)c1cc(-c2ccc(Cl)cc2)nc2ccccc12,8.98 µM
3,CC1(CC(=O)N/N=C/c2ccc(OCc3ccc(Cl)cc3Cl)cc2)OCCCO1,4.3 µM
4,O=S(=O)(CCN(CCS(=O)(=O)C(F)(F)F)CC1CCCO1)C(F)(F)F (configuration not stated),11.2 µM
5,O=C(c1ccc2c3n(nc2c1)-c1ccccc1CO3)N1CCCCC1,9.67 µM
6,O=C(NNC(=S)Nc1cccc(C(F)(F)F)c1)c1cccc(Cl)c1,25.5 µM
7,CCCOc1ccccc1NC(=O)/C=C/C(N)=O,2.34 µM
8,Cc1cccc(NC(=S)N/N=C2/CCCCc3ccccc32)c1,7.44 µM
9,COc1ccc(/C(N)=N/OC(=O)c2ccc3c(c2)OCO3)cc1,7.52 µM
10,COC(=O)c1c(N2C(=O)CC(Sc3ccccc3C(=O)O)C2=O)sc2c1CCCC2 (configuration not stated),3.13 µM
11,CCOc1ccccc1NC(=O)/C=C/C(N)=O,7.36 µM
12,Cn1c(Cl)cnc1C1CC(=O)c2cc(Cl)ccc2O1 (configuration not stated),4.44 µM
13,Cc1ccc(/C(N)=N/OC(=O)c2ccc3c(c2)OCO3)cc1,15.5 µM
14,O=C(OCn1ncc(Br)c(Br)c1=O)c1ccc(F)cc1,1.78 µM
15,CCN(CC)C1CC(=O)N(c2cccc(Cl)c2)C1=O (configuration not stated),2.46 µM
16,COc1cc(OC)c(C(=O)O/N=C(\N)c2ccc(C)cc2)cc1OC,6.94 µM
17,N/C(=N\OC(=O)CCC1CCCC1)c1cccc([N+](=O)[O-])c1,10.8 µM
18,CC(C)(C)c1ccc(CN2N=Nc3ccccc3S2(=O)=O)cc1,5.66 µM
19,CC[C@@H]1CC=C[C@H]2[C@H]1C(=O)N(Cc1ccccc1)[C@H]2c1ccoc1,7.42 µM
20,Fc1ccccc1CNC(=S)Nc1cccc(C(F)(F)F)c1,11.8 µM
21,CCOC(=O)c1ccc(NC(=O)CC2OCCN(CC)C2=O)cc1 (configuration not stated),2.02 µM
22,Cc1ccc(OCC(=O)O/N=C(\N)Cc2ccc(Cl)cc2)cc1,61.9 µM
23,CCSc1nc2ccccc2n1C(=O)/C=C\c1ccc(OC)c(OC)c1,11.8 µM
24,N/C(=N\OC(=O)CCC1CCCC1)c1ccccc1,29.6 µM
25,COc1ccc(Cl)cc1NC(=O)CN(C)C(=O)C12CC3CC(CC(Cl)(C3)C1)C2,23.8 µM
26,Cc1ccc(NC(=O)c2ccc(Cl)c(N3C(=O)C=CC3=O)c2)cc1,4.13 µM
27,Cc1ccccc1OCC(=O)Nc1ccc(S(=O)(=O)N2CCCC2)cc1,7.95 µM
